What is called EC50 is the concentration that produces a half-maximal response.

Active and inactive are the calls of the source. No cut-off for these calls is given here.

Drawing on ChEMBL document CHEMBL1154911, “Structure and biosynthesis of amphidinol 17, a hemolytic compound from Amphidinium carterae” (J Nat Prod, 2010), this text covers EC50 and Activity for 1 molecule.

Data set [1] in a line: Toxicity in human RBC assessed as hemolytic activity after 24 hrs by microtiter plate assay. It is filed as cell-based, Erythrocyte. To be noted: human red blood cells (RBC).
Another data set concerns Aspergillus niger. Briefly: Antifungal activity against Aspergillus niger ATCC 16404 by disk diffusion method. It is filed as functional, organism-based. (In general: A growth-free zone around the sample is the usual read-out of agar diffusion tests.)
For another data set, the system named is Kluyveromyces marxianus. Nature of the data set: Antifungal activity against Candida kefyr ATCC 2512 by disk diffusion method. It is filed as functional, organism-based.

As to `C=CCC/C=C/C=C/C=C/CC/C=C/[C@@H](O)[C@H](O)C1O[C@@H]([C@H](O)[C@H](O)C(=C)CC[C@@H](O)C2C[C@@H](O)[C@@H](O)[C@H]([C@@H](O)[C@H](O)/C=C(\C)CC[C@H](O)C[C@H](O)[C@H](O)[C@@H](C)C[C@H](O)C(O)C(C)CCC(O)CCCC(O)CCCCCOS(=O)(=O)O)O2)C[C@@H](O)[C@H]1O` (stereo partly drawn) [AMPHIDINOL 17], the EC50 at 24 h in data set [1] came out at 4.9 µM. The result with Aspergillus niger and in the data set with Kluyveromyces marxianus was inactive.
